What all share (assay type): cell-based
What all share (set-up): key: ○ corresponds to genes whose expression is significantly changed; x corresponds to genes whose expression is not changed

For one assay, the system named is AHRR. Description: Microarray gene expression in keratinocytes UV-irradiated through wavelength conversion substance: AHRR. The settings on record: Normal Human Epidermal Keratinocytes; UV 100 mJ/cm^2 through substance solution without direct contact; 24 hours after irradiation. As to the method: (§1) The wavelength conversion substances of (1) and (2) were dissolved in water to prepare solutions at concentrations of 1% and 5%.
(§2) The wavelength conversion substances of (3) and (4) were dispersed in alcohol to prepare 5% and 10% dispersions.
(§3) 1. Normal Human Epidermal Keratinocytes (PromoCell) were used. A cell suspension (1 mL) stored with liquid nitrogen was placed in a hot water bath (37° C.) and thawed until small ice pellets remained, and then diluted with 9 mL of warm KGM medium. 2. The diluted suspension was gently mixed and transferred to a T75 flask, and incubated overnight at 37° C. 3. On the following day, the medium was exchanged with 10 mL of fresh medium. 4. The medium was periodically exchanged (once every 2 to 3 days), while continuing growth of the cells. During this time, a microscope was used to observe the cells and to confirm that the cells had proliferated with the proper form. 5. Once the cells reached approximately 80% confluence, they were subcultured. 6. Subculturing of the cells was carried out by rinsing and aspirating once in 10 mL of warm PBS. 7. 5 mL of warm trypsin was added to the T75 flask to cover the bottom of the flask with the trypsin solution, and the mixture was aspirated after standing for 1 minute at room temperature. 8. The flask was set in an oven at 37° C. for 5 minutes (maximum) for keratinocytes. […]

For the next assay, the system named is AhR. Put plainly: Microarray gene expression in keratinocytes UV-irradiated through wavelength conversion substance: AhR. The settings on record: Normal Human Epidermal Keratinocytes; UV 100 mJ/cm^2 through substance solution without direct contact; 24 hours after irradiation; expression of AhR is reduced. As to the method:
as §1, §2, §3

The next assay deals with HMOX1. Put plainly: Microarray gene expression in keratinocytes UV-irradiated through wavelength conversion substance: HMOX1. The settings on record: Normal Human Epidermal Keratinocytes; UV 100 mJ/cm^2 through substance solution without direct contact; 24 hours after irradiation. As to the method: as §1, §2, §3

As to `Cc1cc2nc3c(=O)[nH]c(=O)nc-3n(C[C@H](O)[C@H](O)[C@H](O)CO)c2cc1C` [Vitamin B2, Riboflavin], the “AHRR gene expression change (microarray)” value with AHRR is “○”. The “AhR gene expression change (microarray)” value with AhR is “○”. Further, in the assay on HMOX1, the “HMOX1 gene expression change (microarray)” value is given as “x”.

Values taken from patent publication US20230050588A1, “ANTIOXIDANT OR SKIN STRESS INHIBITOR” (Shiseido Company, Ltd., priority 2020, published 2023).
